The values below are quoted from earlier work in patent publication US20230399457A1, “Bioactive Synthetic Copolymer, Bioactive Macromolecule and Related Methods Thereof” (Agency for Science, Technology and Research, priority 2020, published 2023).

The data set deals with rats.

For the sequence “AGQWHRVSVRWGC [A5G81, laminin-derived peptide]”, the wound healing result is “facilitate wound healing in rats”.
